Each structure is given as a SMILES string. ± gives the expanded uncertainty stated by the source.

For this data set the following is noted: 101.33 kPa, Liquid, hot wire.

With `[Pb]` [lead], the thermal conductivity worked out at 16.2 ± 1 W/m/K (620.3 K), 17 ± 1.1 W/m/K (678.1 K) and 17.6 ± 1.1 W/m/K (729.5 K).

These data come from the NIST ThermoML archive (doi:10.1007/s10765-007-0182-2).
